Test results: patent publication US4613598A, “Piperazine derivatives and their acid addition salts” (Mitsubishi Chemical Industries Limited, priority 1984, dated 1986)
Where a name gives a salt, the structure may show the parent alone.

Tests used:
[1] = system: spontaneous hypertensive rats; assay: Hypotensive activity in non-narcotized, heart-catheterized spontaneous hypertensive rats; format: in vivo; settings: Rattus norvegicus, oral, lowest blood pressure during 6 hours after administration, read-out: Hypotensive ratio
Method: Hypotensive activity As the experimental animal, spontaneous hypertensive rats 5 to 7 months after birth with a body weight of 300 to 370 g were used. The blood pressure and the heart beat of the non-narcotized, heart-catheterized rats were operatively determined to calculate the averages in blood pressure and heart beat prior to the administration of the present compound. Successively during 6 hours after orally administering the present compound, the blood pressure and the heart beat were determined to calculate the hypotensive ratio by the following formula: [formula] wherein X is the average in blood pressure before administration; and Y is the value of the lowest blood pressure after the administration.

[2] = Acute toxicity (LD50, Litchfield-Wilcoxon method), oral administration to mouse; settings: in vivo
Method: The present compound was orally administered to mouse and the acute toxicity value (LD50) was calculated according to Litchfield-Wilcoxonmethod.

Row | SMILES | inhibition in vivo at 3 mg/kg [1] [%] | LD50 [2] [mg/kg] | inhibition in vivo at 0.3 mg/kg [1] [%] | inhibition in vivo at 1 mg/kg [1] [%] | inhibition in vivo at 10 mg/kg [1] [%]
1 | COc1ccccc1N1CCN(CCCCC(=O)c2ccc(O)c(NC(C)=O)c2)CC1 [Compound No. 23, 5-[5-[4-(2-methoxyphenyl)-1-piperazinyl]valeryl]-2-hydroxyacetanilide] | 36.5 | – | – | – | –
2 | COc1ccccc1N1CCN(CCCCC(=O)c2ccc([S+](C)[O-])c(NC(N)=O)c2)CC1 (centres unmarked) [Compound No. 35, 5-[5-[4-(2-methoxyphenyl)-1-piperazinyl]valeryl]-2-methylsulfinyl-N-carbamoylaniline] | 25.6 | > 3000 | 16.5 | 16.1 | 47.9
3 | COc1ccc(C(=O)CCCCN2CCN(c3ccccc3OC)CC2)cc1NS(C)(=O)=O [Compound No. 29, 5-[5-[4-(2-methoxyphenyl)-1-piperazinyl]valeryl]-2-methoxy-N-methanesulfonylaniline dihydrochloride] | 37.3 | – | – | 22.8 | –
4 | COc1ccccc1N1CCN(CCCCC(=O)c2ccc([S+](C)[O-])c(S(N)(=O)=O)c2)CC1 (centres unmarked) [Compound No. 7, 5-[5-[4-(2-methoxyphenyl)-1-piperazinyl]valeryl]-2-methylsulfinyl-benzenesulfonamide] | 17.5 | – | – | 8.9 | 31.3
5 | COc1ccccc1N1CCN(CCCCC(=O)c2ccc(SC)c(NC(N)=O)c2)CC1 [Compound No. 34, 5-[5-[4-(2-methoxyphenyl)-1-piperazinyl]valeryl]-2-methylthio-N-carbamoylaniline] | 28.9 | – | – | 17.6 | 39.9
6 | NC(=O)c1cc(C(=O)CCCCN2CCN(c3ccccc3Cl)CC2)ccc1O [Compound No. 13, 5-[5-[4-(2-chlorophenyl)-1-piperazinyl]valeryl]salicylamide] | 19.7 | – | – | – | 16.5
7 | COc1ccccc1N1CCN(CCCCC(=O)c2ccc(SC)c(S(N)(=O)=O)c2)CC1 [Compound No. 6, 5-[5-[4-(2-methoxyphenyl)-1-piperazinyl]valeryl]-2-methylthio-benzenesulfonamide] | 24.3 | > 3000 | – | 16.1 | 23
8 | COc1ccccc1N1CCN(CCCCC(=O)c2ccc3c(c2)NC(=O)CCO3)CC1 [Compound No. 41, 7-[5-[4-(2-methoxyphenyl)-1-piperazinyl]valeryl]-2,3,4,5-tetrahydro-1,5-benzoxazepine-4-one] | 35.6 | – | 25.9 | 33 | –
9 | COc1ccccc1N1CCN(CCCCC(=O)c2ccc(O)c(C(N)=O)c2)CC1 [Compound No. 12, 5-[5-[4-(2-methoxyphenyl)-1-piperazinyl]valeryl]-salicylamide] | 35.2 | > 3000 | – | – | –
10 | COc1ccc(C(=O)CCCCN2CCN(c3ccccc3OC)CC2)cc1NC(N)=O [Compound No. 26, 5-[5-[4-(2-methoxyphenyl)-1-piperazinyl]valeryl]-2-methoxy-N-carbamoylaniline] | 31.8 | 2700 | – | – | –
11 | O=C(O)c1cc(C(O)CCCCN2CCN(c3ccccn3)CC2)ccc1O (centres unmarked) [Compound No. 17, 5-[5-[4-(2-pyridyl)-1-piperazinyl]-1-hydroxypentyl]salicylic acid] | 21.1 | – | – | – | 15.7
12 | COc1ccc(C(O)CN2CCN(c3ccccc3)CC2)cc1NC(N)=O (centres unmarked) [Control 3, reference compound] | 5.6 | – | – | – | 9.4
13 | COc1ccc(C(O)CN2CCN(c3ccccc3)CC2)cc1S(N)(=O)=O (centres unmarked) [Control 1, reference compound] | – | – | – | 10.5 | 2.5
14 | O=C1CSc2ccc(C(=O)CCCN3CCN(c4ccccn4)CC3)cc2N1 [Compound No. 49] | 45.7 | – | – | 10.9 | –
15 | COc1ccccc1N1CCN(CCCCC(=O)c2ccc(OC)c(S(N)(=O)=O)c2)CC1 [Compound No. 2, 5-[5-[4-(2-methoxyphenyl)-1-piperazinyl]valeryl]-2-methoxy-benzenesulfonamide dihydrochloride] | 19.7 | – | 10.5 | 34.6 | –
16 | NC(=O)c1cc(C(=O)CN2CCN(c3ccccc3)CC2)ccc1O [Control 2, 5[2(4-phenyl-1-piperazinyl)acetyl]salicylamide, reference compound] | 13.7 | – | – | 9.9 | 6.6
